According to patent publication US11186544B2 (BRISTOL-MYERS SQUIBB COMPANY, priority 2017, dated 2021):

How the values were obtained:
[1] = target: human FPR1 (Homo sapiens (Human), UniProt P21462); experiment: FPR1 cyclic adenosine monophosphate (cAMP) assay; type: cell-based; conditions: CHO cells overexpressing human FPR1; inhibition of forskolin (10 μM) stimulated cAMP; read-out: hFPR1 cAMP EC50
Experimental: (§1) FPR2 and FPR1 Cyclic Adenosine Monophosphate (cAMP) Assays. A mixture of forskolin (5 μM final for FPR2 or 10 μM final for FPR1) and IBMX (200 μM final) were added to 384-well Proxiplates (Perkin-Elmer) pre-dotted with test compounds in DMSO (1% final) at final concentrations in the range of 0.020 nM to 100 μM. Chinese Hamster Ovary cells (CHO) overexpressing human FPR1 or human FPR2 receptors were cultured in F-12 (Ham's) medium supplemented with 10% qualified FBS, 250 μg/ml zeocin and 300 μg/ml hygromycin (Life Technologies). Reactions were initiated by adding 2,000 human FPR2 cells per well or 4,000 human FPR1 cells per well in Dulbecco's PBS (with calcium and magnesium) (Life Technologies) supplemented with 0.1% BSA (Perkin-Elmer). The reaction mixtures were incubated for 30 min at room temperature. The level of intracellular cAMP was determined using the HTRF HiRange cAMP assay reagent kit (Cisbio) according to manufacturer's instruction. Solutions of cryptate conjugated anti-cAMP and d2 flurorophore-labelled cAMP were made in a supplied lysis buffer separately. Upon completion of the reaction, the cells were lysed with equal volume of the d2-cAMP solution and anti-cAMP solution. After a 1-h room temperature incubation, time-resolved fluorescence intensity was measured using the Envision (Perkin-Elmer) at 400 nm excitation and dual emission at 590 nm and 665 nm. A calibration curve was constructed with an external cAMP standard at concentrations ranging from 1 μM to 0.1 pM by plotting the fluorescent intensity ratio from 665 nm emission to the intensity from the 590 nm emission against cAMP concentrations. The potency and activity of a compound to inhibit cAMP production was then determined by fitting to a 4-parametric logistic equation from a plot of cAMP level versus compound concentrations.

[2] = target: human FPR2 (Homo sapiens (Human), UniProt P25090); experiment: FPR2 cyclic adenosine monophosphate (cAMP) assay; type: cell-based; conditions: CHO cells overexpressing human FPR2; inhibition of forskolin (5 μM) stimulated cAMP; read-out: hFPR2 cAMP2 EC50
human FPR2, sequence (P25090 whole entry): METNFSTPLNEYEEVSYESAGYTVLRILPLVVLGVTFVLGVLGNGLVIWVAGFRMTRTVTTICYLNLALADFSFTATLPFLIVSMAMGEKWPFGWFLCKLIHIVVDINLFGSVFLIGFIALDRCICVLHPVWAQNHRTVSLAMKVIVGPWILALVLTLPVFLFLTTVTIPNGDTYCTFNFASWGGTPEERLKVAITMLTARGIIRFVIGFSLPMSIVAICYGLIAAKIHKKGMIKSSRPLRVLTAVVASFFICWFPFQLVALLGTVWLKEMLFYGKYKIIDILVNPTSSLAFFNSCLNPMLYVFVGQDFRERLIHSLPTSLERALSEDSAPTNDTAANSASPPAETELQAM
Experimental: as §1, with “After a 1-h room temperature incubation, time-resolved fluorescence intensity was measured using the Envision (Perkin-Elmer) at 400 nm excitation and dual emission at 590 nm and 665 nm. A calibration curve was constructed with an external cAMP standard at concentrations ranging from 1 μM to 0.1 pM by plotting the fluorescent intensity ratio from 665 nm emission to the intensity from the 590 nm emission against cAMP concentrations.” left out

human FPR1, sequence (P21462 whole entry): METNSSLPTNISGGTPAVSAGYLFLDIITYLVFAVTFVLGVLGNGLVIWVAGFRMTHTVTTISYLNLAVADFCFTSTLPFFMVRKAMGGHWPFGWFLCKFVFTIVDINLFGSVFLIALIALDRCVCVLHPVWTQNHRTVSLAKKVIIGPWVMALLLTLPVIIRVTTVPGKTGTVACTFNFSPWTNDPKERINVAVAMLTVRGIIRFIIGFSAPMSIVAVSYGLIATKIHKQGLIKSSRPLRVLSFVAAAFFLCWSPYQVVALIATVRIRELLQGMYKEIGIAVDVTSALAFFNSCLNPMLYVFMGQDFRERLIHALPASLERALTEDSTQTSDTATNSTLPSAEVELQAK

Row | Structure (SMILES) | EC50 [1] | EC50 [2]
1 | CS(=O)(=O)Nc1ccccc1-c1ccc(N2CCC[C@@H](NC(=O)Nc3ccc(Cl)cc3F)C2=O)cc1 [Example 188] | 25 nM | 0.13 nM
2 | COc1ccc(NC(=O)N[C@@H]2CCCN(c3ccc(-c4ccccc4NS(C)(=O)=O)cc3)C2=O)c(F)c1 [Example 197] | 220 nM | 0.76 nM
3 | COc1ccc(NC(=O)N[C@@H]2CCCN(c3ccc(-c4ccccc4NS(C)(=O)=O)cc3)C2=O)cc1 [Example 199] | 140 nM | 0.28 nM
4 | CS(=O)(=O)Nc1ccccc1-c1ccc(N2C[C@H](O)C[C@@H](NC(=O)Nc3ccc(Cl)cc3)C2=O)cc1 [Example 211] | 27 nM | 0.35 nM
5 | CS(=O)(=O)Nc1ccccc1-c1ccc(N2CCC[C@@H](NC(=O)Nc3ccc(C(F)(F)F)cc3F)C2=O)cc1 [Example 212] | 120 nM | 0.63 nM
6 | CS(=O)(=O)Nc1ccccc1-c1ccc(N2C[C@H](O)C[C@@H](NC(=O)Nc3ccc(C(F)(F)F)cc3)C2=O)cc1 [Example 213] | 110 nM | 0.75 nM
7 | CS(=O)(=O)Nc1ccccc1-c1ccc(N2C[C@H](O)C[C@H](NC(=O)Nc3ncc(Cl)cc3F)C2=O)cc1 [Example 214] | 160 nM | 2.24 nM
8 | CS(=O)(=O)Nc1ccccc1-c1ccc(N2C[C@H](O)C[C@@H](NC(=O)Nc3ccc(Cl)cn3)C2=O)cc1 [Example 215] | 260 nM | 2 nM
9 | COc1cc(-c2ccccc2NS(C)(=O)=O)ccc1N1CCC[C@@H](NC(=O)Nc2ncc(C(F)(F)F)cc2F)C1=O [Example 255] | 3300 nM | 17 nM
10 | COc1cc(-c2ccccc2NS(C)(=O)=O)ccc1N1CCC[C@@H](NC(=O)Nc2ccc(C(F)(F)F)cn2)C1=O [Example 256] | 1400 nM | 17 nM
11 | CS(=O)(=O)Nc1ccccc1-c1ccc(N2CCC[C@@H](NC(=O)Nc3ccc(OC(F)F)nc3)C2=O)cc1 [Example 257] | 3500 nM | 17 nM
12 | Cc1cnc(NC(=O)N[C@@H]2CCCN(c3ccc(-c4ccccc4NS(C)(=O)=O)cc3F)C2=O)cn1 [Example 258] | > 10000 nM | 20 nM
13 | COc1cnc(NC(=O)N[C@@H]2CCCN(c3ccc(-c4ccccc4NS(C)(=O)=O)c(F)c3)C2=O)c(F)c1 [Example 259] | 2000 nM | 22 nM
14 | CS(=O)(=O)Nc1ccccc1-c1cc(F)c(N2CCC[C@@H](NC(=O)Nc3ccc(Cl)cc3)C2=O)c(F)c1 [Example 260, (R)—N-(4′-(3-(3-(4-chlorophenyl)ureido)-2-oxopiperidin-1-yl)-3′,5′-difluoro-[1,1′-biphenyl]-2-yl)methanesulfonamide] | 210 nM | 0.59 nM
15 | NCc1cccc(-c2ccc(N3CCC[C@@H](NC(=O)Nc4ccc(Cl)cc4)C3=O)cc2)c1F [Example 276, (R)-1-(1-(3′-(Aminomethyl)-2′-fluoro-[1,1′-biphenyl]-4-yl)-2-oxopiperidin-3-yl)-3-(4-chlorophenyl)urea] | 680 nM | 8.5 nM
16 | CS(=O)(=O)Nc1ccccc1-c1ccc(N2C[C@H](O)C[C@@H](NC(=O)Nc3ccc(Cl)cc3F)C2=O)cc1 [Example 277, N-(4′-((3R,5R)-3-(3-(4-chloro-2-fluorophenyl)ureido)-5-hydroxy-2-oxopiperidin-1-yl)-[1,1′-biphenyl]-2-yl)methanesulfonamide] | 8.4 nM | 0.17 nM
17 | CS(=O)(=O)Nc1ccccc1-c1ccc(N2CCC[C@@H](NC(=O)Nc3ccc(Cl)cc3F)C2=O)c(Cl)c1 [Example 299, 1-[(3R)-1-{3-chloro-2′-methanesulfonamido-[1,1′-biphenyl]-4-yl}-2-oxopiperidin-3-yl]-3-(4-chloro-2-fluorophenyl)urea] | 130 nM | 5.5 nM
